PubChem BioAssay (NCI)
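Exposure lasted 48 hours, with cells grown in 96-well plates and compounds tested at five concentrations. TGI: total growth inhibition.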

Assays:
Assay in all cases: DTP human tumour cell line panel, 48 h
A498 renal = tested on: A498 renal
CCRF-CEM leukemia = tested on: CCRF-CEM leukemia
DU-145 prostate = tested on: DU-145 prostate
EKVX NSCLC = tested on: EKVX NSCLC
HCC-2998 colon = tested on: HCC-2998 colon
HCT-15 colon = tested on: HCT-15 colon
HOP-62 NSCLC = tested on: HOP-62 NSCLC
K-562 leukemia = tested on: K-562 leukemia
LOX IMVI melanoma = tested on: LOX IMVI melanoma
M14 melanoma = tested on: M14 melanoma
MALME-3M melanoma = tested on: MALME-3M melanoma
MCF7 breast = tested on: MCF7 breast
NCI-H23 lung = tested on: NCI-H23 lung
NCI-H522 lung = tested on: NCI-H522 lung
PC-3 prostate = tested on: PC-3 prostate
SF-539 CNS = tested on: SF-539 CNS
TK-10 renal = tested on: TK-10 renal

Row | Structure (SMILES) | TGI (A498 renal) [µM] | TGI (CCRF-CEM leukemia) [µM] | TGI (DU-145 prostate) [µM] | TGI (EKVX NSCLC) [µM] | TGI (HCC-2998 colon) [µM] | TGI (HCT-15 colon) [µM] | TGI (HOP-62 NSCLC) [µM] | TGI (K-562 leukemia) [µM] | TGI (LOX IMVI melanoma) [µM] | TGI (M14 melanoma) [µM] | TGI (MALME-3M melanoma) [µM] | TGI (MCF7 breast) [µM] | TGI (NCI-H23 lung) [µM] | TGI (NCI-H522 lung) [µM] | TGI (PC-3 prostate) [µM] | TGI (SF-539 CNS) [µM] | TGI (TK-10 renal) [µM]
1 | CC(C)=CCC[C@@H](C)[C@H]1CC[C@@]2(C)[C@@H]3CC[C@H]4C(C)(C)[C@@H](O)CC[C@@]45C[C@@]35CC[C@]12C | > 94.3 | 63.5 | > 100 | > 88.8 | > 31.6 | > 100 | 59.6 | > 100 | 56.5 | > 85.1 | > 100 | > 100 | 50.7 | 49.3 | > 100 | > 70.9 | > 100
2 | COc1cc(CN=c2nc(N(C)C)ss2)cc(OC)c1OC | > 10 | 1.56 | > 10 | > 10 | > 10 | > 10 | > 10 | 5.67 | 4.4 | > 10 | > 9.27 | > 10 | > 10 | > 10 | > 10 | > 10 | > 10
3 | CN1CCN(c2cc3[nH]c4cc(O)cc(O)c4c(=O)c3cc2N)CC1 | 73.2 | 32.9 | > 100 | 87.9 | 45.7 | > 100 | > 100 | 36.1 | 41.5 | > 100 | 67.4 | 45.8 | > 100 | 63.5 | 52.7 | 17.4 | 94.2
4 | C#CCOC(=O)C(N)CC(N)=O (stereo not drawn) | > 100 | > 100 | > 100 | > 100 | > 100 | > 100 | > 100 | > 100 | > 100 | > 100 | > 100 | > 100 | > 100 | > 100 | > 100 | > 100 | > 100
5 | O=C1c2ccccc2-c2nnc3c(c21)Cc1ccccc1C3 | > 10 | > 10 | > 10 | > 10 | > 10 | > 10 | > 10 | > 10 | > 10 | > 10 | > 10 | > 10 | > 10 | > 10 | > 10 | > 10 | > 10
6 | CC(C#N)(c1ccccc1)N(CCc1ccccc1)C(=O)Oc1ccccc1 (stereo not drawn) | > 100 | > 100 | > 100 | > 100 | > 100 | > 100 | > 100 | > 100 | > 100 | > 100 | > 100 | > 100 | > 100 | > 100 | > 100 | > 100 | > 100
7 | COc1ccc2c(O)c(Oc3ccc(Cl)cc3)c(=O)oc2c1 | > 100 | > 100 | > 100 | > 100 | > 100 | > 100 | > 100 | > 100 | > 100 | > 100 | > 100 | > 100 | > 100 | > 100 | > 100 | > 100 | > 100
8 | O=C1Cc2c(-c3cccs3)cc(-c3ccccc3)nc2-c2ccccc2N1 | > 100 | > 100 | > 100 | > 100 | > 100 | > 100 | > 100 | > 100 | > 100 | > 100 | 45.7 | > 100 | > 100 | > 100 | > 100 | > 100 | > 100
9 | O=C1c2ccccc2C(=O)N1/N=C1/SC(=Nc2ccccc2)C(=Nc2ccccc2)N1c1ccccc1 | > 63.1 | > 90.3 | > 100 | > 100 | > 100 | > 100 | > 100 | > 100 | > 100 | > 100 | > 84.7 | > 100 | > 88.6 | > 100 | > 100 | > 100 | > 100
